Several values for one entry are separate records, joined by “and”; a condition that tells them apart may be missing. Equal entries are not always repeated.
Tests used:
rP2X7R = molecular target: T1, rP2X7R (Rattus norvegicus, UniProt Q64663); assay: Calcium influx assay, 1321N1 astrocytoma cells, BzATP EC80; format: cell-based; set-up: expressed in transfected cells; conditions: for IC50: 1321N1 cells, BzATP EC80, mean ± SD
T1 sequence (Q64663 1-595): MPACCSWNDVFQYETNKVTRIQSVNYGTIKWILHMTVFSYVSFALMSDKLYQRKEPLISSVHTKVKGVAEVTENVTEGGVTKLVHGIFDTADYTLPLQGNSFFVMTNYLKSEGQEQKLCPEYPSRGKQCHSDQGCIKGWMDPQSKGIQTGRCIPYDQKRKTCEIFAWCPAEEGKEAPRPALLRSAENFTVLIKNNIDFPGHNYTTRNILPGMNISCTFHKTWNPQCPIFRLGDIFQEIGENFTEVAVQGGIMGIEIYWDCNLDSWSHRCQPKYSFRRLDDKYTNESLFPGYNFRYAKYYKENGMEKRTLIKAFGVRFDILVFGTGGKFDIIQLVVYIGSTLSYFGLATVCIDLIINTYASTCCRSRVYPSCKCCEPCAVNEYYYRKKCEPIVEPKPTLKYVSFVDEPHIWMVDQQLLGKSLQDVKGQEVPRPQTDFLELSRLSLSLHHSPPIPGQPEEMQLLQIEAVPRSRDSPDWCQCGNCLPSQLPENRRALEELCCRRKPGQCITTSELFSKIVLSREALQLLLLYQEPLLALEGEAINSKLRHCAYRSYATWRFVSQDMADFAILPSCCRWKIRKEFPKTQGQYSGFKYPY
Description: (§1) . For 1321N1 astrocytoma cells stably expressing the human, rat, or mouse P2X7Rs, or hP2X2Rs or hP2X4Rs, the fluorescent Ca^2+-chelating dye Fluo-4 acetoxymethyl ester (Fluo-4 AM, Thermo Fisher Scientific, Dreieich, Germany) was used. For 1321N1 astrocytoma cell lines recombinantly expressing the hP2X1Rs or hP2X3Rs, the FLIPR® Calcium 5 Assay Kit (Molecular Devices, San José, CA, USA) was employed. Human, rat, and mouse P2X7Rs as well as hP2X1Rs, hP2X2Rs, hP2X3Rs, and hP2X4Rs were recombinantly expressed in 1321N1 astrocytoma cells using a retroviral expression system[72]–[74].
(§2) On the first day, 45,000 cells per well (30,000 cells for the human P2X3 receptor-expressing cells) were seeded into a 96-well polystyrene microplate with a black, flat bottom in a final volume of 200 µL. After overnight incubation at 37 °C and 10% CO2 (5% CO2 for the human P2X3R-expressing cell line), the medium was removed by inverting the plate, and the cells were loaded with dye solution. Hanks’ balanced salt solution (HBSS, Thermo Fisher Scientific, Dreieich, Germany) was used as the assay buffer for human P2X1R, P2X2R, P2X3R, and P2X4R. For the P2X7Rs, a different assay buffer was used: 150 mM sodium-glutamate, 5 mM KCl, 0.5 mM CaCl2, 0.1 mM MgCl2, 10 mM D-glucose, 25 mM 4-(2-hydroxyethyl)-1-piperazineethanesulfonic acid (HEPES), pH 7.4. The dye solutions were freshly prepared. The Fluo-4 AM solution contained 3 µM of Fluo-4 AM in assay buffer and 1% of the non-ionic detergent Pluronic F-127® (Sigma-Aldrich, Taufkirchen, Germany). The Calcium 5 dye, used for hP2X1Rs and hP2X3Rs, was prepared in HBSS buffer. Cells were loaded with Fluo-4 AM and incubated for 1 h at room temperature with gentle shaking (100 rpm), while those loaded with the Calcium 5 dye were incubated for 1 h at 37 °C. After incubation, the dye solution was carefully removed from the plate, and buffer was added to the cells for the evaluation of agonists. […] The agonist solution was prepared in a 96-well transparent plate, obtaining the respective EC80 values. As a control, assay buffer without the test compound was used. After 30 min of incubation with antagonist, the plates were measured using a fluorescence imaging plate reader NOVOstar (BMG Labtech GmbH, Offenburg, Germany) at an excitation wavelength of 485 nm and an emission wavelength of 520 nm, for 30 s at 0.4 s intervals. Calcium influx measurements were then initiated by automatic addition of 20 µL of agonist solution by the plate reader’s pipetting device. Data were analyzed using Microsoft Excel and GraphPad Prism (Version 8.0, San Diego, CA, USA). EC80 and IC50 values were calculated using nonlinear regression with a sigmoidal dose-response equation.

mP2X7R = molecular target: T2, mP2X7R (Mus musculus, UniProt Q9Z1M0); assay: as above; format: cell-based; conditions: for IC50: 1321N1 cells, BzATP EC80, mean ± SD
T2 construct: expressed in transfected cells
T2 sequence (Q9Z1M0 1-595): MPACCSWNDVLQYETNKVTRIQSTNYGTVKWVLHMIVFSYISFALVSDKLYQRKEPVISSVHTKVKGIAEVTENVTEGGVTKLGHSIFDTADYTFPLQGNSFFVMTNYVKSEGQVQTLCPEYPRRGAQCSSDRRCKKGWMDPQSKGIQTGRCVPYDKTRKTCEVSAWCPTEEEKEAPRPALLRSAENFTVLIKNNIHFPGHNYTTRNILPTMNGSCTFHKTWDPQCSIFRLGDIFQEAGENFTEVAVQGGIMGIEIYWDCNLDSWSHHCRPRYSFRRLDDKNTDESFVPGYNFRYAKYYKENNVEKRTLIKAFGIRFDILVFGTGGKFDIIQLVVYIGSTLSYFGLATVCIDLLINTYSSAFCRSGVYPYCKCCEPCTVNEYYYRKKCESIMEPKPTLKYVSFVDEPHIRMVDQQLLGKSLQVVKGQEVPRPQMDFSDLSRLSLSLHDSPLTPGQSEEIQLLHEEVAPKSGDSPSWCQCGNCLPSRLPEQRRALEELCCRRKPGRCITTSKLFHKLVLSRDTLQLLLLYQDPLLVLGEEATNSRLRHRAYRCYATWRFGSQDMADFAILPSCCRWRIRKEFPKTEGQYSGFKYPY
Description: as §1, §2

activity at 0.003 µM (rP2X7R; 1321-N1, Log(c) M -8.52288, read-out: normalized calcium signal, rP2X7R IC50 curve) [%]	activity at 0.001 µM (rP2X7R; 1321-N1, Log(c) M -9, read-out: normalized calcium signal, rP2X7R IC50 curve) [%]	activity at 0.0003 µM (rP2X7R; 1321-N1, Log(c) M -9.52288, read-out: normalized calcium signal, rP2X7R IC50 curve) [%]	IC50 (rP2X7R) [µM]	normalized calcium signal, rP2X7R IC50 curve (rP2X7R; Log(c) M -9, 0.001 µM)	IC50 (mP2X7R) [µM]	activity at 0.03 µM (rP2X7R; 1321-N1, Log(c) M -7.52288, read-out: normalized calcium signal, rP2X7R IC50 curve) [%]	activity at 0.01 µM (rP2X7R; 1321-N1, Log(c) M -8, read-out: normalized calcium signal, rP2X7R IC50 curve) [%]	activity at 0.003 µM (mP2X7R; 1321-N1, Log(c) M -8.52288, read-out: normalized calcium signal, mP2X7R IC50 curve) [%]	Compound	normalized calcium signal, rP2X7R IC50 curve (rP2X7R; Log(c) M -8, 0.01 µM)	normalized calcium signal, rP2X7R IC50 curve (rP2X7R; Log(c) M -8.52288, 0.003 µM)	times more potent than UB-ALT-P30 on the rP2X7R (rP2X7R; calcium influx)	normalized calcium signal, mP2X7R IC50 curve (mP2X7R; Log(c) M -8.52288, 0.003 µM)	normalized calcium signal, mP2X7R IC50 curve (mP2X7R; Log(c) M -9, 0.001 µM)	normalized calcium signal, mP2X7R IC50 curve (mP2X7R; Log(c) M -9.52288, 0.0003 µM)	times more potent than UB-ALT-P30 on the mP2X7R (mP2X7R; calcium influx)	normalized calcium signal, rP2X7R IC50 curve (rP2X7R; Log(c) M -7.52288, 0.03 µM)	normalized calcium signal, mP2X7R IC50 curve (mP2X7R; Log(c) M -7, 0.1 µM)	normalized calcium signal, mP2X7R IC50 curve (mP2X7R; Log(c) M -7.52288, 0.03 µM)	normalized calcium signal, mP2X7R IC50 curve (mP2X7R; Log(c) M -8, 0.01 µM)
92.9	83	92.1	0.0406 ± 0.0104	97.4351	0.00452 ± 0.00072	–	–	–	CC12CC3CC1(C)C1(C)CC3(C(=O)NNc3ccccc3Cl)CC21C [UB-MBX-46]	92.0673 and 92.0463 and 93.4263 and 100.969 and 74.9729 and 70.4733	98.336 and 95.4706 and 107.675 and 91.9395	~ 3 x	72.2751 and 83.0134 and 65.4518 and 88.1956 and 92.7904 and 87.7744 and 76.3105 and 64.8252	110.597 and 115.455 and 88.4 and 102.046 and 107.58 and 103.403 and 110.382	115.86 and 127.811 and 92.8545 and 89.4511 and 104.887 and 106.902 and 87.8281 and 105.571	~ 33 x	–	–	–	–
–	–	–	0.116 ± 0.05	–	0.148 ± 0.027	94.8	98.3	101	O=C(NNc1ccccc1Cl)C12CC3CC(CC(C3)C1)C2 [UB-ALT-P30, reference compound]	98.7308 and 105.449 and 107.576 and 114.231 and 110.835	87.0316 and 95.5173 and 98.7016 and 89.3009 and 111.685 and 110.916 and 108.743	–	96.3012 and 101.363	–	–	–	96.1595 and 98.0559 and 102.654 and 103.189	58.6062 and 69.2329 and 80.2999 and 70.4572 and 91.3507 and 85.9323 and 94.1322	92.3415 and 79.1265 and 114.599 and 132.12 and 97.8989 and 119.546	92.8335 and 100.155 and 89.6254 and 122.632 and 113.342 and 120.308
